We go through 74 compounds from a melting point compilation (Tetko et al.; mined from patent text by program, amines drawn as free bases though some values may be those of a salt).

Molecules are shown by their SMILES.

Broadly, the melting point is the temperature of the solid-liquid transition. Turning to `O=C(NC1=NN(c2ccccc2)C(c2ccccc2)C1)C(F)(F)F` (centres undefined), the melting point lay in the range of 152 to 154 °C.

For `COc1ccc(-c2nc(-c3cccn3C)[nH]c2-c2ccc(OC)cc2)cc1`, the melting point amounted to 110 °C. Consider `CCNC(=O)c1c(C)cccc1[Si](C)(C)C`, for which the melting point is 64 to 66 °C. For `O=C(CCCCCN1CCN(c2ccc3c(c2)CCCC3)CC1)N1Cc2ccccc2C1` the value was 123 °C; for `O=C([C@H]1CC[C@H](Nc2ncc3ncnc(Nc4ccc(F)c(Cl)c4)c3n2)CC1)N1CCCC1`, 206 to 209 °C; for `COc1cc(C=Cc2ccccc2)c(C#N)c(OC)c1`, 147 to 148 °C. In the case of `CC(=O)Nc1ccc(Nc2ncnc3[nH]cc(C(=O)c4ccccc4)c23)cc1` it was 263 to 264 °C. For `Cc1noc(NS(=O)(=O)c2ccc(Cc3ccccc3)s2)c1Br` the value was 49 to 50 °C. In the case of `Nc1c(Cl)cc(Nc2ncnc3cnc(N[C@H]4CC[C@H](C(=O)N5CCOCC5)CC4)nc23)cc1Cl`, the melting point is 204 to 207 °C.

`CC(C)C(S)C(=O)NC1(C(=O)NC(Cc2ccc(-c3ccccc3)s2)C(=O)O)CCCC1` (centres undefined) registered a melting point of 154 to 155 °C. In the case of `CN(C)CCNC(=O)N1CCN(c2ccccc2)CC1` it was 88 to 90 °C; in that of `CN(C)CCSc1cc(NC(=O)OC(C)(C)C)c(NC(=O)CC(=O)c2cccc(C#N)c2)cc1C#Cc1ccccc1`, 88 °C; in that of `Cc1ccc2[nH]c(=O)oc(=O)c2c1`, 257 °C.

Turning to `CC(=O)N(c1ccc(N2CCN(C)CC2)cc1)c1ncc2c(n1)S/C(=C/c1cn(C(C)=O)c3ccccc13)C(=O)N2`, the melting point is 289 to 292 °C. For `N#Cc1cccc(-c2ccc3cc[nH]c(=O)c3c2)c1` the value was > 300 °C. Take `C[C@H](Cn1ncnn1)n1cnc2cc3c(=O)n(C4CC4)cnc3cc2c1=O`: the melting point was 221 to 223 °C.

In turn, `CCOC(=O)c1c(Nc2c(C)cccc2C)n[nH]c1C` gave a melting point of 131 to 137 °C. In the case of `Cc1cc2c3c(cc(C)c2[nH]c1=O)C(C)C(C)(CN=[N+]=[N-])O3` (centres undefined) it was 189 to 192 °C; in that of `Nc1nc(N)nc(Cc2cc3ccccc3s2)n1`, 216 to 218 °C. In the case of `CCOC(=O)N1CCN2c3ccccc3Cc3ccccc3C2C1` (centres undefined) it was 108 to 110 °C; in that of `O=C(NC(CO)c1ccc(-c2ccc(SC(F)F)cc2)cc1)c1c(F)cccc1F` (centres undefined), 156 to 157 °C. For `N[C@@]1(C(=O)O)C[C@H](NC(=O)Nc2ccccc2Cl)[C@H]2[C@H](C(=O)O)[C@H]21` (relative stereo) the value was > 250 °C; for `O=C(O)c1cccc(-c2cccc(Oc3cccc(Cl)c3Cl)n2)c1`, 216 to 217 °C.

On to `CN1CCN(Cc2c(C(=O)O)nc3c(=O)[nH]c4cc(C(F)(F)F)ccc4n23)CC1`, for which the melting point is > 240 °C. In the case of `Nc1nc(NC2CCC(CO)C2)c2ncn(C3C=CC(CO)C3)c2n1` (centres undefined) it was 177 to 180 °C; in that of `N#CC(C#N)=C1N(CCCN2CCCCC2)CCN1C1CCN(CCF)CC1`, 56 to 57 °C. For `CCCCOc1cc(CCS(N)(=O)=O)n(Cc2ccc(Cl)cc2Cl)n1` the value was 134 to 136 °C; for `O=S(=O)(NC(CCCN1CCN(c2ncc(F)cn2)CC1)c1ccc(F)cc1)c1ccc(F)cc1` (centres undefined), 128 to 129 °C; for `COc1ccc(OCc2ccccc2)cc1C=O`, 99 to 100 °C.

In the case of `CN1C(=O)N(c2cc(Cl)cc(Cl)c2)C(=O)[C@]12CN(Cc1ccccc1)C[C@H]2c1ccc(C#N)cc1` (relative stereo), the melting point was determined as 164 °C. In the case of `CCCSc1nccn2c(=O)c(C(=O)OCC)cnc12` it was 112 °C; in that of `O=C(c1cccs1)c1cnn2c(-c3ccc(Cl)nc3)ccnc12`, 145 to 148 °C. In the case of `CC1Cc2cccc3c4oc(=O)c(Sc5cccc(F)c5)c(O)c4c(=O)n1c23` (centres undefined) it was 199 to 200 °C. For `COC(=O)Cc1ccc2oc(=S)[nH]c2c1` the value was 120 to 122 °C; for `CSC(c1ccccc1)S(=O)c1ccccc1` (centres undefined), 104 to 105 °C; for `Cc1cc(C2=NOC(c3cc(Cl)cc(Cl)c3)(C(F)(F)F)C2)ccc1C(=O)NC(N)=O` (centres undefined), 201 to 205 °C. `N#Cc1cnc2ccc(N)cc2c1Nc1ccc(F)c(Br)c1` had a melting point of 210 to 212 °C.

In turn, `COc1cnc(CSc2nc3cc(OC(F)(F)F)ccc3[nH]2)cc1OC` gave a melting point of 92 to 93 °C. In the case of `O=S(=O)(Cl)c1nc2ccccn2n1` it was 116 to 118 °C; in that of `O=C1CCC(c2ccc(N=C=S)cc2)=NN1`, 182 to 183 °C. With `OCC1OC(n2c(Cl)nc3ccc(Cl)cc32)C(O)C1O` (centres undefined), the melting point is 162 to 163 °C.

Compound `Cc1ccc(OC(=O)c2cccc(C(=O)Oc3ccc(C)cc3-n3nc4ccccc4n3)c2)c(-n2nc3ccccc3n2)c1` registered a melting point of 115 to 118 °C. For `O=C(CCCCCCC(=O)Oc1cc(O)cc(O)c1)Oc1cc(O)cc(O)c1` the value was 185 to 188 °C.

In the case of `COC(=O)c1ccc(Oc2c(C)n(CC(=O)O)c3ccc(F)cc23)cc1`, the melting point lay within 195 to 196 °C. For `COc1ccc(C(=O)Cc2c(Cl)cncc2Cl)c2c1OCC2CC(=O)OCc1ccccc1` (centres undefined) the value was 120 to 122 °C.

In turn, `CCC(CC)Oc1cc(C)nc2c1[nH]c(=O)n2-c1c(C)cc(C)cc1C` displayed a melting point of 184 to 186 °C. In the case of `CCOc1cc2c(C)c(CCOS(C)(=O)=O)c(=O)oc2cc1OC` it was 153 to 154 °C; in that of `CC(C)c1ccc2oc(C(O)COc3ccc(CO)cc3)cc2c1` (centres undefined), 98 to 100 °C; in that of `O=C1NCCNC1c1ccc(F)cc1` (racemic), 115 °C. In the case of `CCN(CC)c1ccc(C=CC(=O)C=Cc2ccc(N(CC)CC)cc2)cc1` it was 168 °C; in that of `O=C1C[C@@H](NC(=O)OCc2ccccc2)C(=O)O1`, 126 to 127 °C. For `C=C=Cn1c(=O)sc2cc(F)c(-n3c(=O)cc(C)n(C)c3=O)cc21` the value was > 250 °C. Regarding `COC(=O)CC[C@H](NC(=O)c1ccc(N(C)CCc2c(NC(C)=O)nc(NC(C)=O)[nH]c2=O)cc1)C(=O)OC`, the melting point fell in the range of 168 to 175 °C. `CCCCc1nc(Cl)c(COCc2ccccc2C(=O)O)n1Cc1ccc(-c2ccccc2-c2nnn[nH]2)cc1` showed a melting point of 109 to 111 °C.

On to `CC(C)C1(C)N=C(c2ncccc2C(=O)O)N(C#N)C1=O` (centres undefined), for which the melting point fell in the range of 150 to 153 °C. For `OCc1nn(-c2ccccc2Cl)cc1-c1ccccc1` the value was 132 °C; for `Cc1ccccc1Nc1c(C(=O)C(C)C)cnc2c(OCCO)cccc12`, 138 to 140 °C; for `CCOCC1(O)CCN(c2ccc(N3C[C@H](CNC(C)=O)OC3=O)cc2F)CC1`, 76 to 78 °C. `Cn1ncnc1COc1nc2c(cnn2-c2ccccc2)c2ccccc12` came in with a melting point of 149 to 151 °C. In the case of `Cc1cc(Oc2cc(Cl)ccc2[N+](=O)[O-])n[nH]1` it was 87 to 90 °C. In the case of `Cn1ccnc1NC(=O)c1c(C(F)(F)F)nc2c(C(F)(F)F)cccc2c1O` it was 259 °C. In the case of `O=C(CCCCCNC(=O)c1cccc2ccccc12)NO` it was 118 to 119 °C; in that of `Cc1cc(SC2=C(O)CC(CCc3ccc(O)cc3)(CCc3ccc(O)cc3)OC2=O)c(C(C)(C)C)cc1OS(=O)(=O)N(C)C`, 139 °C; in that of `O=S(=O)(Nc1ccc2[nH]c3c(c2c1)CCNC3)c1c(Cl)nc2sccn12`, 242 to 244 °C. `O=C(O)CCCCCCCCn1nnc(-c2ccccc2)c1-c1ccccc1` gave a melting point of 86 to 87 °C.

In turn, `O=C(O)COc1c(-c2cccc(Cl)c2)cc(C(=O)NCCCCCCCCn2ccc3cc(F)ccc32)cc1-c1cccc(Cl)c1` registered a melting point of 141 to 144 °C. `COC(=O)c1c(CC#N)c(-c2ccc3c(c2)OCO3)c2c3c(ccc2c1C)OCO3` gave a melting point of 215 to 217 °C. For `COc1ccccc1-n1c(=O)[nH]c2c(C(N)=O)nc(-c3ccc4cc[nH]c4c3)nc21` the value was 203 to 204 °C; for `COC(=O)[C@H](CCCC(OC)OC)N1C(=O)c2ccccc2C1=O`, 69 to 70 °C; for `CC(C)Cn1cc(C(N)=O)c(N)n1`, 154 to 158 °C. For `COc1ccc2c(c1)C(=NO)C(=O)N2c1ccc(F)cc1` the value was 217 to 219 °C; for `COc1ccc(/C=C/c2ccc3c(=O)n(-c4ccccc4)ncc3c2)cc1`, 198 to 199 °C. In the case of `COC(=O)CNS(=O)(=O)c1ccc(CCN2CC=C(c3c[nH]c(-c4ccc(F)cc4)c3-c3ccncc3)CC2)cc1` it was 220 to 223 °C; in that of `COC(=O)c1cc(-c2ccccc2C)c(C(=O)OC)cc1I`, 105 to 109 °C.
